Key:
PBMCs = test: RNA sequencing of PBMCs, differential expression analysis; format: cell-based, human; settings: 2 μM, 18 h; for Number of genes with significantly modulated expression: FDR <0.05, fold change >1.5 or <0.667 vs 0.1% DMSO; for Number of differentially expressed genes: down-regulated / Number of differentially expressed genes: up-regulated: vs 0.1% DMSO
Experimental: Based on the potent in vitro NOD2 activation by 68 and the PBMC cytotoxicity activation by 75, we explored the effects of 68 and 75 in terms of induction at the transcriptional level. Next-generation sequencing of RNA isolated from PBMCs was carried out following their stimulation for 18 h with 68 or 75 (2 μM). After applying a low expression filter, the remaining 19046 genes from the desmuramylpeptide-treated samples were compared to the vehicle-treated controls (0.1% DMSO).
Peripheral blood mononuclear cells from three independent donors were seeded (2 × 10^6 cells/mL) in 24-well plates in 1 mL of growth medium and treated with the compounds (2 μM) or vehicle (0.1% DMSO) for 18 h at 37 °C in 5% CO2. The cells were washed with phosphate-buffered saline, resuspended in RNAlater RNA stabilization solution (Sigma-Aldrich, St. Louis, MO, U.S.A.), and stored at −80 °C. RNA extraction, library construction, and sequencing were conducted by Genewiz (Leipzig, Germany).
Briefly, total RNA was extracted using the RNeasy mini kit (Qiagen, Hilden, Germany) according to the manufacturer protocol. RNA samples were quantified using Qubit 4.0 Fluorometer (Life Technologies, Carlsbad, CA, U.S.A.), and RNA integrity was checked with RNA Kit on a 5600 Fragment Analyzer (Agilent Technologies, Palo Alto, CA, U.S.A.). All RNA samples were of high quality with an RNA quality number of ≥9.4. RNA sequencing libraries were prepared using NEBNext Ultra II RNA library prep kit for Illumina according to the manufacturer instructions (New England Biolabs, Ipswich, MA, U.S.A.). Libraries were loaded on the Illumina NovaSeq 6000 instrument, and clustering was performed directly on the NovaSeq before sequencing according to the manufacturer instructions. The samples were sequenced using a 2 × 150 paired end configuration. Image analysis and base calling were conducted by the NovaSeq Control Software. Raw sequence data (.bcl files) generated from the Illumina NovaSeq were converted into fastq files and demultiplexed using Illumina’s bcl2fastq 2.19 software. One mismatch was allowed for index sequence identification. After investigating the quality of the raw data, sequence reads were trimmed to remove possible adapter sequences and nucleotides with poor quality using Trimmomatic v.0.36. The trimmed reads were mapped to the Homo sapiens reference genome as available on ENSEMBL, using STAR aligner v.2.5.2b, thus generating BAM files. Unique gene hit counts were calculated using feature counts from the Subread package v.1.5.2. Only unique reads that fell within exon regions were counted. After extraction of gene hit counts, the gene hit counts table was used for downstream differential expression analysis.
Differential expression analysis was performed with iDEP.91.[128] First, a low expression filter was applied (0.5 counts per million in at least 1 library). The remaining gene counts were normalized by counts per million in the EdgeR package, with a pseudocount of 4. Differential gene expression analysis was performed with the DESeq2 method, using a false discovery rate <0.05 and a gene expression fold change >1.5 or <0.667 as the cutoff values. The list of differentially expressed genes was then used as input for gene annotation and pathway enrichment analysis with Metascape.[94]

[1] = tested on: CD4+ T cells (OT II) cocultured with BMDCs; test: BMDC antigen presentation assay with ovalbumin-specific CD4+ T cells; format: cell-based, mouse; settings: ovalbumin 50 μg/mL, 72 h coculture
Experimental: To evaluate the adjuvant potential of the two most-promising desmuramylpeptides, 68 and 75, in terms of their effects on DC-mediated activation of CD4^+ and CD8^+ T cells, we used an in vitro antigen-presentation assay with C57BL/6 mouse bone-marrow-derived DCs (BMDCs). Following stimulation with 68 and 75 (1 or 10 μM) in the presence of ovalbumin soluble protein (50 μg/mL), BMDCs were cocultured with carboxyfluorescein succinimidyl ester (CFSE)-labeled naive ovalbumin-specific CD4^+ or CD8^+ T cells, which were isolated from splenocytes of OT II and OT I transgenic mice, respectively. After 3 days of coculture, CD25 (α subunit of IL-2 receptor)[108] expression was determined, along with the CFSE dilution, as markers of T-cell activation and proliferation, respectively. Furthermore, we also examined how this desmuramylpeptide-induced priming of T cells affected the secreted cytokine profiles in BMDC/T-cell cocultures.
CD4^+ and CD8^+ T cells were purified from splenocytes of OT II and OT I transgenic mice using CD4^+ and CD8^+ T cell isolation kits (Miltenyi Biotec, Germany), according to manufacturer instructions. Purified T cells were stained with CFSE (Invitrogen, Carlsbad, CA, U.S.A.) and washed. Then, 5 × 10^4 T cells were mixed with 1 × 10^4 BMDCs per well (pretreated with desmuramylpeptides [1 or 10 μM] and 50 μg/mL ovalbumin [InvivoGen, San Diego, CA, U.S.A.] for 18 h, and then washed). […] The cells were stained with Fixable viability dye eFluor 780 (eBioscience, Thermo Fisher Scientific, MA, U.S.A.), anti-Thy1.2-PE-Cy7 antibodies (Biolegend, San Diego, CA, U.S.A.), anti-CD8-eFluor450 antibodies (eBioscience), anti-CD4-eFluor450 antibodies (eBioscience), and anti-CD25-APC antibodies (Biolegend) and analyzed using a Beckman Coulter Cytoflex S flow cytometer (CA, U.S.A.) and FlowJo software (Tree Star, Inc., Ashland, OR, U.S.A.). Live Thy1.2^+/CD4^+ and Thy1.2^+/CD8^+ were evaluated for CFSE dilution and CD25 expression. […] Statistical significance was determined by one-way ANOVA followed by Dunnett’s multiple comparisons test.

[2] = 10 μM, CD25 expression and CFSE dilution

SMILES: COc1cc(/C=C/C(=O)NCC(=O)N[C@H](C(=O)N[C@H](CCC(=O)OC2CCCC2)C(=O)OC2CCCC2)C(C)C)ccc1O [Compound 68, Dicyclopentyl ((E)-3-(4-Hydroxy-3-methoxyphenyl)acryloyl)glycyl-L-valyl-D-glutamate]
- Modulation of interferon-stimulated genes (ISGs) (PBMCs): up-regulation of several interferon-stimulated genes
- Number of genes with significantly modulated expression (PBMCs): 445 genes
- Number of differentially expressed genes: down-regulated (PBMCs): 215 genes
- Number of differentially expressed genes: up-regulated (PBMCs): 230 genes
- BMDC-mediated CD4+ T-cell activation and proliferation ([1]; 1 μM): also showed this effect
- BMDC-mediated CD4+ T-cell activation and proliferation [1, 2]: significantly enhanced

SMILES: CCCCCCCCCCCCCCCCCC(=O)Oc1ccc(/C=C/C(=O)NCC(=O)N[C@H](C(=O)N[C@H](CCC(=O)OCC)C(=O)OCC)C(C)C)cc1OC [Compound 75, Diethyl ((E)-3-(3-Methoxy-4-(stearoyloxy)phenyl)acryloyl)glycyl-L-valyl-D-glutamate]
- Number of genes with significantly modulated expression (PBMCs): 270 genes
- Number of differentially expressed genes: down-regulated (PBMCs): 143 genes
- Number of differentially expressed genes: up-regulated (PBMCs): 127 genes
- BMDC-mediated CD4+ T-cell activation and proliferation [1, 2]: significantly enhanced

Source: paper PMC8279416, “Structural Fine-Tuning of Desmuramylpeptide NOD2 Agonists Defines Their In Vivo Adjuvant Activity” (Journal of Medicinal Chemistry, 2021)
